According to PMC10223470 (Molecules, 2023):
Structures can show the parent of a compound that is named as a salt.

tested on: mice; assay: Amphetamine-induced hyperactivity in mice; type: in vivo; settings: amphetamine 3 mg/kg s.c.
Description: (§1) The experiments were carried out on 6 weeks old naive Swiss male mice (Experimental Medicine Center (OMD), Lublin, Poland), weighing 28–30 g. The cages with mice were located in air-conditioned rooms maintaining the ambient temperature within the range of 23–25 °C. The animals were provided with a natural 12 h day/night cycle, replicating the day and night mode. Each testing group was represented by 8–10 animals, depending on the research schedule. All experiments were conducted according to the National Institute of Health Guidelines for the Care and Use of Laboratory Animals (8th edition) and to the European Community Council Directive for the Care and Use of Laboratory Animals of 22 September 2010 (2010/63/EU) and were approved by the Local Ethical Committee (number of ethical approval: 147/2018).
(§2) Compound 17 (25, 50, 75 mg/kg) was suspended in 1% Tween 80 in saline solution and was administered intraperitoneally (i.p.) 60 min before the test. Diazepam (DZ, Relanium, Polfa, Poland) at a dose of 1 mg/kg was diluted in 0.9% saline containing 1% Tween 80 and was administered subcutaneously (s.c.), 60 min before the test. Imipramine hydrochloride (30 mg/kg, Sigma-Aldrich was administered intraperitoneally (i.p.) 60 min before the test. D-amphetamine sulfate (3 mg/kg; Sigma-Aldrich, USA) was given subcutaneously (s.c.). Prior to administration, the agent was dissolved in saline and injected 30 min before the test. Control animals received an (i.p.) or (s.c.) injection of a respective vehicle. All compounds were injected in a manner generally accepted in experimental pharmacology, in an amount of 10 mL/kg body weight.
The measurement of the spontaneous locomotor activity was carried out using the OptoVarimex 4 Auto-Track device (Columbus Instruments, Columbus, OH, USA). Tested animals are kept in cages for 30 min. Their activity was recorded as interruptions of the light beams after 10 and 30 min of the test, and it was calculated automatically as a traveled distance in cm (±SEM). To determine whether compound 17 has an influence on amphetamine-induced hyperactivity, each mouse received 17 (25, 50 and 75 mg/kg; i.p.) and amphetamine (3 mg/kg; s.c.) 30 min after injection of 17 or vehicle and then spontaneous locomotor activity was measured.

Q: Which “effect on locomotor activity compared to the control group after 10 min” value does the source give for `C[C@H](N)Cc1ccccc1` [amphetamine, D-amphetamine sulfate, reference compound] here?
A: increased mice locomotor activity

Q: What about the “effect on locomotor activity compared to the control group after 30 min” value of the same molecule?
A: increased mice locomotor activity

target: T1, human D2S receptor (Homo sapiens, UniProt P14416); assay: Competition radioligand binding at human D2 receptor ([3H]-Spiperone, CHO-K1 membranes); settings: D2 receptor affinity
T1 construct: expressed in transfected cells; host or cells: CHO-K1
T1 sequence (P14416 1-414 isoform P14416-2): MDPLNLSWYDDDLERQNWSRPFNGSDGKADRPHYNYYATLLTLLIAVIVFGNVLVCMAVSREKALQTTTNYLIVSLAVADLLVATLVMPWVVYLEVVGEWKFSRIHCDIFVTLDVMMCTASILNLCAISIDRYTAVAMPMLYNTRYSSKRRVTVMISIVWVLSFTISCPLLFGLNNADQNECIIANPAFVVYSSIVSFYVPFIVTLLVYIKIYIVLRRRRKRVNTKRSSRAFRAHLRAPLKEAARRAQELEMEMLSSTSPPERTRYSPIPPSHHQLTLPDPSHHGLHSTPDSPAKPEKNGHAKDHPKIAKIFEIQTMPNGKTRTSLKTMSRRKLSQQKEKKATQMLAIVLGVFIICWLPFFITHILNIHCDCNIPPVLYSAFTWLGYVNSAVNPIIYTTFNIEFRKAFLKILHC
Description: Experiments were carried out in membranes isolated from a CHO-K1 cell line stably overexpressing the cloned human D2S receptor.
Competition radioligand binding assays were performed on membranes isolated from cell lines stably expressing the cloned human receptors, which were either in-house or commercially available. […] Assays (250 μL assay final volume) were carried out in 96-well polypropylene plates in duplicate. In short, the suspension of appropriate membrane protein was incubated in an assay buffer with the addition of the corresponding radioligand, in the presence or absence of a tested compound or reference compound. […] After the incubation, the content of the test plates was transferred to 96 well plates with glass fiber filter GF/B or GF/C, previously pretreated with polyethyleneimine (PEI), and rapidly filtered with the use of vacuum, followed by rapid washing with cold (4 °C) wash buffer. After that, the filter plates were dried at 60 °C for 1 h. Then, 30 μL of liquid scintillation cocktail (UniverSol-ES, MP Biomedicals, Solon, OH, USA) was added to each well of the filter plates, and the radioactivity was measured in a MicroBeta^2 microplate scintillation counter (PerkinElmer, Madrid, Spain).
Competition binding curves were fitted to a one-site competition binding model (Fit Ki) with the use of Prism 7 software (GraphPad, San Diego, CA, USA). logKi (log of the equilibrium dissociation constant (Ki)) values were obtained after constraining the concentration of radioligand employed in the assay and its dissociation constant (KD) as determined in saturation radioligand binding assays.

Q: `O=C(CCN1C(=O)CCOc2ccccc21)Nc1ccc(C(F)(F)F)cc1` [Compound 4, 3-(4-Oxo-3,4-dihydrobenzo[b][1,4]oxazepin-5(2H)-yl)-N-(4-(trifluoromethyl)phenyl)propanamide] was tested. Which “decrease of activity compared to the initial compound (D2AAK2)” value did it give?
A: 10 fold

same assay, conditions: mean ± SEM of 2–3 independent experiments in duplicate; read-out: huD2 Ki

Q: `O=C(CCN1C(=O)CCOc2ccccc21)Nc1ccc(C(F)(F)F)cc1` [Compound 4, 3-(4-Oxo-3,4-dihydrobenzo[b][1,4]oxazepin-5(2H)-yl)-N-(4-(trifluoromethyl)phenyl)propanamide] was tested. Which Ki did it give?
A: 3.846 ± 0.035 µM

same assay, conditions: read-out: huD2 % inh. at 10 µM

Q: For `O=C(CCN1C(=O)CSc2ccccc21)Nc1ccccc1[N+](=O)[O-]` [Compound 21, N-(2-Nitrophenyl)-3-(3-oxo-2,3-dihydro-4H-benzo[b][1,4]thiazin-4-yl)propanamide], which inhibition at 10 µM is on record?
A: 5 ± 3%

Q: `COc1ccccc1NC(=O)CCN1C(=O)CSc2ccccc21` [Compound 18, N-(2-Methoxyphenyl)-3-(3-oxo-2,3-dihydro-4H-benzo[b][1,4]thiazin-4-yl)propanamide] was tested. Which inhibition at 10 µM did it give?
A: 6%

Q: How did the inhibition at 10 µM turn out when `Cc1ccccc1S(=O)(=O)NCCC(=O)Nc1ccc(C(F)(F)F)cc1` [Compound 7, 3-((2-Methylphenyl)sulfonamido)-N-(4-(trifluoromethyl)phenyl)propanamide] was run?
A: 13 ± 13%

Q: For `Cc1ccc(S(=O)(=O)NCCC(=O)Nc2ccc(C(F)(F)F)cc2)cc1` [Compound 8, 3-((4-Methylphenyl)sulfonamido)-N-(4-(trifluoromethyl)phenyl)propanamide], which inhibition at 10 µM is on record?
A: 8 ± 7%

Q: `O=C(CCN1CCCCC1=O)Nc1ccc(C(F)(F)F)cc1` [Compound 6, 3-(2-Oxopiperidin-1-yl)-N-(4-(trifluoromethyl)phenyl)propanamide] was tested. Which inhibition at 10 µM did it give?
A: 14 ± 11%

Q: `COc1ccc(NC(=O)CCN2C(=O)CSc3ccccc32)cc1` [Compound 20, N-(4-Methoxyphenyl)-3-(3-oxo-2,3-dihydro-4H-benzo[b][1,4]thiazin-4-yl)propanamide] was tested. Which inhibition at 10 µM did it give?
A: 47 ± 1%

Q: For `O=C(CN1C(=O)CSc2ccccc21)Nc1ccc(C(F)(F)F)cc1` [Compound 9, 2-(3-Oxo-2,3-dihydro-4H-benzo[b][1,4]thiazin-4-yl)-N-(4-(trifluoromethyl)phenyl)acetamide], which inhibition at 10 µM is on record?
A: 8 ± 8%

Q: Which inhibition at 10 µM does the source give for `O=C(CCN1C(=O)CSc2ccccc21)Nc1ccccc1Cl` [Compound 15, N-(2-Chlorophenyl)-3-(3-oxo-2,3-dihydro-4H-benzo[b][1,4]thiazin-4-yl)propanamide] here?
A: 9 ± 3%

Q: How did the inhibition at 10 µM turn out when `Cc1ccccc1NC(=O)CCN1C(=O)CSc2ccccc21` [Compound 12, 3-(3-Oxo-2,3-dihydro-4H-benzo[b][1,4]thiazin-4-yl)-N-(o-tolyl)propanamide] was run?
A: 10%

Q: With `O=C(CCN1C(=O)COc2ccccc21)Nc1ccc(C(F)(F)F)cc1` [Compound 1, 3-(3-Oxo-2,3-dihydro-4H-benzo[b][1,4]oxazin-4-yl)-N-(4-(trifluoromethyl)phenyl)propanamide] as the molecule, how does the inhibition at 10 µM read?
A: 35 ± 14%

Q: `O=C(CCN1C(=O)CSc2ccccc21)Nc1cccc([N+](=O)[O-])c1` [Compound 22, N-(3-Nitrophenyl)-3-(3-oxo-2,3-dihydro-4H-benzo[b][1,4]thiazin-4-yl)propanamide] was tested. Which inhibition at 10 µM did it give?
A: 27 ± 2%

Q: For `Cc1cccc(NC(=O)CCN2C(=O)CSc3ccccc32)c1` [Compound 13, 3-(3-Oxo-2,3-dihydro-4H-benzo[b][1,4]thiazin-4-yl)-N-(m-tolyl)propanamide], which inhibition at 10 µM is on record?
A: 32 ± 4%

Q: For `O=C(CCN1C(=O)CSc2ccccc21)Nc1ccccc1` [Compound 10, 3-(3-Oxo-2,3-dihydro-4H-benzo[b][1,4]thiazin-4-yl)-N-phenylpropanamide], which inhibition at 10 µM is on record?
A: 39 ± 4%

Q: Which inhibition at 10 µM does the source give for `O=C(CCn1c(=O)sc2ccccc21)Nc1ccc(C(F)(F)F)cc1` [Compound 2, 3-(2-Oxobenzo[d]thiazol-3(2H)-yl)-N-(4-(trifluoromethyl)phenyl)propanamide] here?
A: 11 ± 5%

Q: For `O=C(CCN1C(=O)CSc2ccccc21)Nc1cccc(Cl)c1` [Compound 16, N-(3-Chlorophenyl)-3-(3-oxo-2,3-dihydro-4H-benzo[b][1,4]thiazin-4-yl)propanamide], which inhibition at 10 µM is on record?
A: 42 ± 8%

Q: Which inhibition at 10 µM does the source give for `O=C(CCN1C(=O)CSc2ccccc21)Nc1ccccc1C(F)(F)F` [Compound 11, 3-(3-Oxo-2,3-dihydro-4H-benzo[b][1,4]thiazin-4-yl)-N-(2-(trifluoromethyl)phenyl)propanamide] here?
A: 9 ± 1%

Q: For `O=C(CCn1c(=O)oc2ccccc21)Nc1ccc(C(F)(F)F)cc1` [Compound 3, 3-(2-Oxobenzo[d]oxazol-3(2H)-yl)-N-(4-(trifluoromethyl)phenyl)propanamide], which inhibition at 10 µM is on record?
A: 8 ± 8%

Q: How did the inhibition at 10 µM turn out when `O=C(CCN1CCSCC1=O)Nc1ccc(C(F)(F)F)cc1` [Compound 5, 3-(3-Oxothiomorpholino)-N-(4-(trifluoromethyl)phenyl)propanamide] was run?
A: 14 ± 10%

Q: `COc1cccc(NC(=O)CCN2C(=O)CSc3ccccc32)c1` [Compound 19, N-(3-Methoxyphenyl)-3-(3-oxo-2,3-dihydro-4H-benzo[b][1,4]thiazin-4-yl)propanamide] was tested. Which inhibition at 10 µM did it give?
A: 10 ± 4%

tested on: mice; assay: Forced swim test (FST); type: in vivo; settings: imipramine 30 mg/kg i.p., 60 min before the test; p < 0.001
Description: The experiments were carried out on 6 weeks old naive Swiss male mice (Experimental Medicine Center (OMD), Lublin, Poland), weighing 28–30 g. The cages with mice were located in air-conditioned rooms maintaining the ambient temperature within the range of 23–25 °C. The animals were provided with a natural 12 h day/night cycle, replicating the day and night mode. Each testing group was represented by 8–10 animals, depending on the research schedule. All experiments were conducted according to the National Institute of Health Guidelines for the Care and Use of Laboratory Animals (8th edition) and to the European Community Council Directive for the Care and Use of Laboratory Animals of 22 September 2010 (2010/63/EU) and were approved by the Local Ethical Committee (number of ethical approval: 147/2018). Compound 17 (25, 50, 75 mg/kg) was suspended in 1% Tween 80 in saline solution and was administered intraperitoneally (i.p.) 60 min before the test. […] Imipramine hydrochloride (30 mg/kg, Sigma-Aldrich was administered intraperitoneally (i.p.) 60 min before the test. […] Sigma-Aldrich, USA) was given subcutaneously (s.c.). Prior to administration, the agent was dissolved in saline and injected 30 min before the test. Control animals received an (i.p.) or (s.c.) injection of a respective vehicle. All compounds were injected in a manner generally accepted in experimental pharmacology, in an amount of 10 mL/kg body weight. Forced Swim Test was carried out according to the method of Porsolt et al.. It is a standard behavioral test, called the resignation test, which is used to determine the effectiveness of antidepressant drugs in laboratory rodents. Each mouse was placed individually for 6 min into a glass cylinder (height 25 cm, diameter 10 cm) with 15 cm of water at 23–25 °C. After the first 2 min of the test, the total duration of immobility (in seconds) was measured. An animal was judged to be immobile when it ceased struggling and remained floating motionless and making only movements allowing it to keep the head just above the surface of the water.

Q: For `CN(C)CCCN1c2ccccc2CCc2ccccc21` [imipramine, Imipramine hydrochloride, reference compound], which “effect on immobility time” value is on record?
A: statistically significant decrease

tested on: mice; assay: Elevated plus-maze (EPM) test; type: in vivo; settings: 1 mg/kg s.c., 60 min before the test; p < 0.05 versus vehicle
Description: as §1, §2
The experiment was carried out on mice according to the method of Lister. […] The number of entries into the open arms and the time spent in these arms were scored for a 5-min test period. […] The following measures were obtained from the test: the total number of arm entries, the percentage of entries into the open arms, the time spent in the open arms expressed as a percentage of the time spent in both the open and closed arms. […]

Q: For `CN1C(=O)CN=C(c2ccccc2)c2cc(Cl)ccc21` [Diazepam, reference compound], which “time spent in the open arms of the maze” value is on record?
A: statistically significant increase
